Where a SMILES comes first, the peptide text is derived from it. [ ]: non-standard residue; d: D form. The star is where a group is joined. ξ: configuration not given here. FITC = O=C1OC2(c3ccc(O)cc3Oc3cc(O)ccc32)c2ccc(NC(=S)*)cc21; Phe(4-NO2) = N[C@@H](Cc1ccc([N+](=O)[O-])cc1)C(=O)O; ξAla(4-thiazolyl) = NC(Cc1cscn1)C(=O)O; pS = N[C@@H](COP(=O)(O)O)C(=O)O; β3hS = N[C@@H](CO)CC(=O)O; Nva = CCC[C@H](N)C(=O)O; AEA = NCCOCC(=O)O; βAla = NCCC(=O)O
Molecular target: T1, 14-3-3γ (Homo sapiens, UniProt P61981)
T1 construct: made in house; host or cells: E. coli NiCo21 (DE3)
T1 sequence (P61981 1-247): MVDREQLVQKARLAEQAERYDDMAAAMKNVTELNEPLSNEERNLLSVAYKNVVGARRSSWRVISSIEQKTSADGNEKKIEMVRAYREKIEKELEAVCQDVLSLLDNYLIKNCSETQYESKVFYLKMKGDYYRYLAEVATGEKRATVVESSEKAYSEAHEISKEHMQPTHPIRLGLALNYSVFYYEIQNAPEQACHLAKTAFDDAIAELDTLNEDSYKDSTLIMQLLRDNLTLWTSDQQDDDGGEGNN
Assay: Fluorescence anisotropy (FA) binary binding study: 14-3-3 titrated to fluorescein-labelled peptide
Method: 14-3-3γ protein expression (FP/ITC experiments)
(§1) A pPROEX HTb expression vector encoding the human 14-3-3 protein gamma (14-3-3γ) with an N-terminal his6-tag was transformed by heat shock into NiCo21 (DE3) competent cells. Single colonies were cultured in 50 mL LB medium (100 µg/mL ampicillin). After overnight incubation at 37 °C, cultures were transferred to 2 L TB media (100 µg/mL ampicillin, 1 mM MgCl2) and incubated at 37 °C until an OD600 nm of 0.8-1.2 was reached. Protein expression was then induced with 0.4 mM isopropyl-β-d-thiogalactoside (IPTG), and cultures were incubated overnight at 18 °C. Cells were harvested by centrifugation (8600 rpm, 20 minutes, 4 °C) and resuspended in lysis buffer (50 mM Hepes, pH 8.0, 300 mM NaCl, 12.5 mM imidazole, 5 mM MgCl2, 2 mM βME) containing cOmplete™ EDTA-free Protease Inhibitor Cocktail tablets (1 tablet/100 ml lysate) and benzonase (1 µl/100 ml). After lysis using a C3 Emulsiflex-C3 homogenizer (Avestin), the cell lysate was cleared by centrifugation (20000 rpm, 30 minutes, 4 °C) and purified using Ni2+-affinity chromatography (Ni-NTA superflow cartridges, Qiagen).
Typically two 5 mL columns (flow 5 mL/min) were used for a 2 L culture in which the lysate was loaded on the column washed with 10 CV wash buffer (50 mM Hepes, pH 8.0, 300 mM NaCl, 25 mM imidazole, 2 mM βME) and eluted in several fractions (2-4 CV) of elution buffer (50 mM Hepes, pH 8.0, 300 mM NaCl, 250 mM imidazole, 2 mM βME). Fractions containing the 14-3-3 protein were combined and dialyzed into 25 mM HEPES pH 8.0, 100 mM NaCl, 10 mM MgCl2, 500 µM TCEP. Finally, the protein was concentrated to ∼60 mg/mL, analyzed Q-Tof LC/MS, and aliquots were flash-frozen for storage at […]
as §1, with “sigma truncated after T231 (14-3-3σΔc) and” for “gamma (14-3-3γ)”, “tablet/ 100” for “tablet/100”, “µl/ 100” for “µl/100”, “ml).” for “ml). After lysis using a C3 Emulsiflex-C3 homogenizer (Avestin), the cell lysate was cleared by centrifugation (20000 rpm, 30 minutes, 4 °C) and purified using Ni2+-affinity chromatography (Ni-NTA superflow cartridges, Qiagen).”
After lysis using a C3 Emulsiflex-C3 homogenizer (Avestin), the cell lysate was cleared by centrifugation (20000 rpm, 30 minutes, 4 °C) and purified using Ni2+-affinity chromatography (Ni-NTA superflow cartridges, Qiagen). Typically two 5 mL columns were used for a 2 L culture in which the lysate was loaded on the column washed with 10 CV wash buffer (50 mM Hepes, pH 8.0, 300 mM NaCl, 25 mM imidazole, 2 mM βME) and eluted with several fractions (2-4 CV) of elution buffer (50 mM Hepes, pH 8.0, 300 mM NaCl, 250 mM imidazole, 2 mM βME). Fractions containing the 14-3-3 protein were combined and dialyzed into 25 mM HEPES pH 8.0, 200 mM NaCl, 10 mM MgCl2, 2 mM βME. In addition, 1 mg TEV was added for each 100 mg purified protein to remove the purification tag. The cleaved sample was then again loaded on a 10 mL Ni-NTA column to separate the cleaved product from the expression tag and residual uncleaved protein. The flowthrough was loaded on a Superdex 75 pg 16/60 size exclusion column (GE Life Sciences) using 25 mM HEPES, 100 mM NaCl, 10 mM MgCl2, 500 μM TCEP (adjusted to pH=8.0) as running buffer. Fractions containing the 14-3-3 protein were pooled and concentrated to ∼60 mg/mL, analyzed Q-Tof LC/MS, and aliquots were flash-frozen for storage at −80 […]
The peptides 1 and 2a-d were synthesized on 50 µmol scale on a Rink amide MBHA resin […]

CCC[C@H](NC(=O)[C@@H](CCCCN)NC(=O)COCCNC(=S)Nc1ccc2c(c1)C(=O)OC21c2ccc(O)cc2Oc2cc(O)ccc21)C(=O)N[C@@H](Cc1ccc([N+](=O)[O-])cc1)C(=O)NC(Cc1cscn1)C(=O)N[C@@H](COP(=O)(O)O)C(N)=O (stereo partly shown) [2i] ({FITC-AEA}-[dK][Nva][Phe(4-NO2)][ξAla(4-thiazolyl)][pS]-NH2)
fold change in binding affinity on truncation (FA KD relative to the previous (one amino acid longer) peptide): four-fold | cumulative ΔΔG of truncating the entire N- or C-terminus (FA, relative to peptide 1 (2d: entire N-terminus; 2i: entire C-terminus)): 18 kJ/mol | ΔΔG C-term (cumulative, whole C-terminus removed) (Table S3, C-term = 2i relative to 1, FA, mean of n = 3): 4,31 kcal/mol | ΔΔG C-term (cumulative) (Table S3, C-term = 2i relative to 1, FA, replicate 1): 4,39 kcal/mol | ΔΔG C-term (cumulative) (Table S3, C-term = 2i relative to 1, FA, replicate 2): 4,30 kcal/mol | ΔΔG C-term (cumulative) (Table S3, C-term = 2i relative to 1, FA, replicate 3): 4,23 kcal/mol | Fold change to previous (Table S3, FA KD of peptide divided by KD of previous (one amino acid longer) peptide, mean of n = 3): 4,04 | Fold change to previous (Table S3, KD / KD of previous peptide, replicate 1): 4,23 | Fold change to previous (Table S3, KD / KD of previous peptide, replicate 2): 3,56 | Fold change to previous (Table S3, KD / KD of previous peptide, replicate 3): 4,33 | ΔG (Table S3, calculated from FA KD, mean of n = 3): -6,22 kcal/mol | ΔG (Table S3, from FA KD, replicate 1): -6,22 kcal/mol | ΔG (Table S3, from FA KD, replicate 2): -6,25 kcal/mol | ΔG (Table S3, from FA KD, replicate 3): -6,18 kcal/mol | ΔΔG (to previous) (Table S3, ΔG minus ΔG of previous peptide, FA, replicate 1): 0,85 kcal/mol | ΔΔG (to previous) (Table S3, ΔG minus ΔG of previous peptide, FA, replicate 2): 0,75 kcal/mol | ΔΔG (to previous) (Table S3, ΔG minus ΔG of previous peptide, FA, replicate 3): 0,87 kcal/mol | ΔΔG (to previous) (Table S3, ΔG of peptide minus ΔG of previous (one amino acid longer) peptide, FA, mean of n = 3): 0,82 kcal/mol

C[C@H](NC(=O)[C@H](CCCCN)NC(=O)[C@H](Cc1ccc([N+](=O)[O-])cc1)NC(=O)CCNC(=O)C[C@H](CO)NC(=O)[C@H](Cc1ccc([N+](=O)[O-])cc1)NC(=O)[C@H](COP(=O)(O)O)NC(=O)C(Cc1cscn1)NC(=O)[C@@H](N)Cc1ccc([N+](=O)[O-])cc1)C(=O)N[C@@H](CCCCNC(=S)Nc1ccc2c(c1)C(=O)OC21c2ccc(O)cc2Oc2cc(O)ccc21)C(N)=O (stereo partly drawn) [2b] (H-[Phe(4-NO2)][ξAla(4-thiazolyl)][pS][Phe(4-NO2)][β3hS][βAla][Phe(4-NO2)]KAK(FITC)-NH2)
individual ΔΔG of removed residue (FA, ΔG relative to the previously truncated peptide): only minor energy contributions | Fold change to previous (Table S2, FA KD of peptide divided by KD of previous (one amino acid longer) peptide, mean of n = 3): 2,86 | Fold change to previous (Table S2, KD / KD of previous (one amino acid longer) peptide, replicate 1): 3,64 | Fold change to previous (Table S2, KD / KD of previous (one amino acid longer) peptide, replicate 2): 2,32 | Fold change to previous (Table S2, KD / KD of previous (one amino acid longer) peptide, replicate 3): 2,61 | ΔG (Table S2, calculated from FA KD, mean of n = 3): -9,52 kcal/mol | ΔG (Table S2, from FA KD, replicate 1): -9,53 kcal/mol | ΔG (Table S2, from FA KD, replicate 2): -9,50 kcal/mol | ΔG (Table S2, from FA KD, replicate 3): -9,54 kcal/mol | ΔΔG (to previous) (Table S2, ΔG minus ΔG of previous peptide, FA, replicate 1): 0,76 kcal/mol | ΔΔG (to previous) (Table S2, ΔG minus ΔG of previous peptide, FA, replicate 2): 0,50 kcal/mol | ΔΔG (to previous) (Table S2, ΔG minus ΔG of previous peptide, FA, replicate 3): 0,57 kcal/mol | ΔΔG (to previous) (Table S2, ΔG of peptide minus ΔG of previous (one amino acid longer) peptide, FA, mean of n = 3): 0,61 kcal/mol
